From patent EP1561465A2, “Methods of use of fluoroquinolone compounds against bacteria” (LG Life Sciences, Ltd., priority 1999, dated 2001)
Converted amounts (≈) assume the structure as drawn. Like-named read-outs stand apart in the source and are kept apart here.

Columns and labels:
Aeromonas spp. = assay: MIC by agar dilution (NCCLS M7-A4), 288 enteropathogenic isolates, eight quinolones; assay type: cell-based; details: Aeromonas spp. (n = 16)
Haemophilus influenzae = assay: MIC by NCCLS reference broth microdilution, 450 respiratory tract pathogens; assay type: cell-based; details: Haemophilus influenzae; for MIC90: read-out: MIC90
Shigella spp. [1] = assay: MIC by NCCLS broth microdilution, 1100 Japanese clinical isolates 1997-1998; assay type: cell-based; details: Shigella spp. (n=34)
[2] = tested on: Streptococcus pneumoniae and Haemophilus influenzae; assay: MIC by broth microdilution (NCCLS), all isolates pooled; assay type: cell-based
Yersinia enterocolitica = assay: MIC by agar dilution (NCCLS M7-A4), 288 enteropathogenic isolates, eight quinolones; assay type: cell-based; details: Yersinia enterocolitica (n = 22)
Streptococcus pyogenes [3] = assay: MIC by NCCLS reference broth microdilution, 450 respiratory tract pathogens; assay type: cell-based; details: Streptococcus pyogenes
Citrobacter freundii = assay: MIC by NCCLS broth microdilution, 1100 Japanese clinical isolates 1997-1998; assay type: cell-based
Klebsiella pneumoniae = assay: as above; assay type: cell-based
Staphylococcus aureus [4] = assay: as above; assay type: cell-based; details: for MIC: Staphylococcus aureus quinolone resistant, read-out: MIC
Shigella spp. [5] = assay: MIC by agar dilution (NCCLS M7-A4), 288 enteropathogenic isolates, eight quinolones; assay type: cell-based; details: Shigella spp. (n = 21)
Salmonella spp. = assay: MIC by agar dilution (NCCLS M7-A4), 288 enteropathogenic isolates, gemifloxacin and 15 other antimicrobials; assay type: cell-based; details: for MIC (mg/L) Range: Salmonella spp. N= 106
Campylobacter jejuni = assay: as above; details: for MIC: Campylobacter jejuni
Staphylococcus aureus [6] = assay: MIC by agar dilution (NCCLS), 411 isolates Buenos Aires 1998-99; assay type: cell-based; details: for MIC90: Staphylococcus aureus
Staphylococcus aureus [7] = assay: MIC by NCCLS reference broth microdilution, 450 respiratory tract pathogens; assay type: cell-based
Enterococcus faecalis = assay: MIC by agar dilution (NCCLS), 411 isolates Buenos Aires 1998-99; assay type: cell-based; details: Enterococcus faecalis (n = 48)
Streptococcus pyogenes [8] = assay: MIC by NCCLS broth microdilution, 1100 Japanese clinical isolates 1997-1998; assay type: cell-based; details: Streptococcus pyogenes (n=51)
Serratia marcescens = assay: as above; assay type: cell-based
Staphylococcus aureus [9] = assay: MIC by agar macrodilution (NCCLS), 373 Gram positive isolates, Athens 1998; assay type: cell-based; details: Methicillin-susceptible Staphylococcus aureus (n = 85)
[10] = Haemophilus influenzae (n = 100)
[11] = erythromycin resistant C phenotype [MLSB] (n = 20)
[12] = erythromycin resistant I phenotype [MLSB] (n = 20)
[13] = Staphylococcus aureus, Staphylococcus aureus oxacillin resistant (n=57)
[14] = S. hadar(2), isolates with MICs for ciprofloxacin ≥[…], read-out: MIC
[15] = S. newport(1), isolate with MIC for ciprofloxacin ≥[…], read-out: MIC
[16] = Salmonella, S. tshiongwe(1), isolate with MIC for ciprofloxacin ≥[…], read-out: MIC
[17] = Salmonella, read-out: MIC (mg/L) 50%, Salmonella spp. N= 106
[18] = Salmonella, read-out: MIC (mg/L) 90%, Salmonella spp. N= 106
[19] = S. aureus, Methicillin resistant (n = 14)
[20] = S. aureus, Methicillin susceptible (n = 66)
[21] = β-lactamase positive and erythromycin resistant (n = 10)

C[C@H]1COc2c(N3CCN(C)CC3)c(F)cc3c(=O)c(C(=O)O)cn1c23 [Levofloxacin, levofloxacin]
% Susceptible (Aeromonas spp.): 100% | MIC50 (Aeromonas spp.): ≤ 0.015 µg/mL | MIC90 (Aeromonas spp.): ≤ 0.015 µg/mL | MIC Range (Aeromonas spp.): ≤0.015 to 0.06 µg/mL | MIC (Haemophilus influenzae; [10]): 0.0075 to 0.5 µg/mL (≈ 0.0208 to 1.38 µM) | MIC50 (Haemophilus influenzae; [10]): 0.015 µg/mL (≈ 0.0415 µM) | MIC90 (Haemophilus influenzae; [10]): 0.03 µg/mL (≈ 0.083 µM) | MIC (Haemophilus influenzae; β-lactamase negative (n = 80)): 0.0075 to 0.5 µg/mL (≈ 0.0208 to 1.38 µM) | MIC50 (Haemophilus influenzae; β-lactamase negative (n = 80)): 0.015 µg/mL (≈ 0.0415 µM) | MIC90 (Haemophilus influenzae; β-lactamase negative (n = 80)): 0.015 µg/mL (≈ 0.0415 µM) | MIC (Haemophilus influenzae; β-lactamase positive (n = 20)): 0.0075 to 0.03 µg/mL (≈ 0.0208 to 0.083 µM) | MIC50 (Haemophilus influenzae; β-lactamase positive (n = 20)): 0.015 µg/mL (≈ 0.0415 µM) | MIC90 (Haemophilus influenzae; β-lactamase positive (n = 20)): 0.03 µg/mL (≈ 0.083 µM) | MIC50 (Shigella spp. [1]): 0.016 µg/mL (≈ 0.0443 µM) | MIC90 (Shigella spp. [1]): 0.063 µg/mL (≈ 0.174 µM) | MIC Range (Shigella spp. [1]): 0.016 to 0.063 µg/mL | MIC90 ([2]; all (380) isolates tested (235 S. pneumoniae, 145 H. influenzae)): 1 µg/mL (≈ 2.77 µM) | MIC90 ([2]; all isolates tested (602)): 1 µg/mL (≈ 2.77 µM) | % Susceptible (Yersinia enterocolitica): 100% | MIC50 (Yersinia enterocolitica): 0.06 µg/mL (≈ 0.166 µM) | MIC90 (Yersinia enterocolitica): 0.06 µg/mL (≈ 0.166 µM) | MIC Range (Yersinia enterocolitica): 0.03 to 0.5 µg/mL | MIC (Streptococcus pyogenes [3]; Streptococcus pyogenes (n = 100)): 0.06 to 2 µg/mL (≈ 0.166 to 5.53 µM) | MIC (Streptococcus pyogenes [3]; [11]): 0.25 to 1 µg/mL (≈ 0.692 to 2.77 µM) | MIC50 (Streptococcus pyogenes [3]; [11]): 0.25 µg/mL (≈ 0.692 µM) | MIC90 (Streptococcus pyogenes [3]; [11]): 0.25 µg/mL (≈ 0.692 µM) | MIC (Streptococcus pyogenes [3]; [12]): 0.25 to 2 µg/mL (≈ 0.692 to 5.53 µM) | MIC50 (Streptococcus pyogenes [3]; [12]): 0.25 µg/mL (≈ 0.692 µM) | MIC90 (Streptococcus pyogenes [3]; [12]): 0.25 µg/mL (≈ 0.692 µM) | MIC (Streptococcus pyogenes [3]; erythromycin resistant M phenotype (n = 20)): 0.06 to 1 µg/mL (≈ 0.166 to 2.77 µM) | MIC (Streptococcus pyogenes [3]; fully susceptible (n = 20)): 0.25 to 2 µg/mL (≈ 0.692 to 5.53 µM) | MIC (Streptococcus pyogenes [3]; multi-drug resistant (n = 20)): 0.25 to 1 µg/mL (≈ 0.692 to 2.77 µM) | MIC50 (Citrobacter freundii; Citrobacter freundii): 0.125 µg/mL (≈ 0.346 µM) | MIC90 (Citrobacter freundii; Citrobacter freundii (n=39)): 1 µg/mL (≈ 2.77 µM) | MIC Range (Citrobacter freundii; Citrobacter freundii (n=39)): 0.016 to 1 µg/mL | MIC90 (Klebsiella pneumoniae; Klebsiella pneumoniae): 0.125 µg/mL (≈ 0.346 µM) | MIC50 (Klebsiella pneumoniae; Klebsiella pneumoniae (n=35)): 0.032 µg/mL (≈ 0.0886 µM) | MIC Range (Klebsiella pneumoniae; Klebsiella pneumoniae (n=35)): 0.016 to 4 µg/mL | MIC Range (Staphylococcus aureus [4]; Staphylococcus aureus oxacillin susceptible (n=41)): 0.125 to 1 µg/mL | MIC50 (Staphylococcus aureus [4]; [13]): 4 µg/mL (≈ 11.1 µM) | MIC90 (Staphylococcus aureus [4]; [13]): 64 µg/mL (≈ 177 µM) | MIC50 (Staphylococcus aureus [4]; Staphylococcus aureus, Staphylococcus aureus oxacillin susceptible (n=41)): 0.25 µg/mL (≈ 0.692 µM) | MIC (Staphylococcus aureus [4]; Staphylococcus aureus, strain TMS3): > 128 µg/mL | MIC (Staphylococcus aureus [4]; Staphylococcus aureus, strain TMS4): 16 µg/mL (≈ 44.3 µM) | MIC (Staphylococcus aureus [4]; Staphylococcus aureus, strain TMS5): 4 µg/mL (≈ 11.1 µM) | MIC (Staphylococcus aureus [4]; Staphylococcus aureus, strain TMS6): 2 µg/mL (≈ 5.53 µM) | % Susceptible (Shigella spp. [5]): 100% | MIC50 (Shigella spp. [5]): 0.03 µg/mL (≈ 0.083 µM) | MIC90 (Shigella spp. [5]): 0.03 µg/mL (≈ 0.083 µM) | MIC (Salmonella spp.; [14]): 1 mg/L (≈ 2.77 µM) | MIC (Salmonella spp.; [15]): 1 mg/L (≈ 2.77 µM) | MIC (Salmonella spp.; S. virchow(2), isolates with MICs for ciprofloxacin ≥[…], read-out: MIC): 0.25 mg/L (≈ 0.692 µM) | MIC (mg/L) Range (Salmonella spp.): 0.06 to 1 mg/L | MIC (Salmonella spp.; [16]): 1 mg/L (≈ 2.77 µM) | MIC (Salmonella spp.; [17]): 0.06 mg/L (≈ 0.166 µM) | MIC (Salmonella spp.; [18]): 0.25 mg/L (≈ 0.692 µM) | MIC (mg/L) Range (Campylobacter jejuni; Campylobacter jejuni N= 91): 0.06 to 128 mg/L | MIC (Campylobacter jejuni; read-out: MIC (mg/L) 50%): 8 mg/L (≈ 22.1 µM) | MIC (Campylobacter jejuni; read-out: MIC (mg/L) 90%): 32 mg/L (≈ 88.6 µM) | Resistance (%) (Staphylococcus aureus [6]; [19]): 100% | Resistance (%) (Staphylococcus aureus [6]; [20]): 0% | MIC Range (Staphylococcus aureus [6]; Staphylococcus aureus (n = 80)): 0.06 to 8 µg/mL | MIC90 (Staphylococcus aureus [6]; [19]): 8 µg/mL (≈ 22.1 µM) | MIC90 (Staphylococcus aureus [6]; [20]): 0.25 µg/mL (≈ 0.692 µM) | MIC90 (Staphylococcus aureus [6]; Staphylococcus aureus (n = 80)): 4 µg/mL (≈ 11.1 µM) | MIC (Staphylococcus aureus [7]; Staphylococcus aureus (n = 50)): 0.03 to 2 µg/mL (≈ 0.083 to 5.53 µM) | MIC50 (Staphylococcus aureus [7]; Staphylococcus aureus (n = 50)): 1 µg/mL (≈ 2.77 µM) | MIC90 (Staphylococcus aureus [7]; Staphylococcus aureus (n = 50)): 2 µg/mL (≈ 5.53 µM) | MIC (Staphylococcus aureus [7]; β-lactamase negative (n = 20)): 0.03 to 2 µg/mL (≈ 0.083 to 5.53 µM) | MIC50 (Staphylococcus aureus [7]; β-lactamase negative (n = 20)): 2 µg/mL (≈ 5.53 µM) | MIC90 (Staphylococcus aureus [7]; β-lactamase negative (n = 20)): 2 µg/mL (≈ 5.53 µM) | MIC (Staphylococcus aureus [7]; β-lactamase positive (n = 20)): 1 to 2 µg/mL (≈ 2.77 to 5.53 µM) | MIC50 (Staphylococcus aureus [7]; β-lactamase positive (n = 20)): 1 µg/mL (≈ 2.77 µM) | MIC90 (Staphylococcus aureus [7]; β-lactamase positive (n = 20)): 2 µg/mL (≈ 5.53 µM) | MIC50 (Staphylococcus aureus [7]; [21]): 1 µg/mL (≈ 2.77 µM) | MIC90 (Staphylococcus aureus [7]; [21]): 2 µg/mL (≈ 5.53 µM) | MIC90 (Enterococcus faecalis): > 32 µg/mL | MIC90 (Streptococcus pyogenes [8]): 2 µg/mL (≈ 5.53 µM) | MIC Range (Streptococcus pyogenes [8]): 0.5 to 2 µg/mL | MIC50 (Serratia marcescens; Serratia marcescens): 0.125 µg/mL (≈ 0.346 µM) | MIC90 (Serratia marcescens; Serratia marcescens (n=30)): 0.5 µg/mL (≈ 1.38 µM) | MIC Range (Serratia marcescens; Serratia marcescens (n=30)): 0.063 to 32 µg/mL

CC1COc2c(N3CCN(C)CC3)c(F)cc3c(=O)c(C(=O)O)cn1c23 (stereo not shown) [Ofloxacin, ofloxacin]
% Susceptible (Aeromonas spp.): 100% | MIC50 (Aeromonas spp.): ≤ 0.015 µg/mL | MIC90 (Aeromonas spp.): 0.03 µg/mL (≈ 0.083 µM) | MIC Range (Aeromonas spp.): ≤0.015 to 0.12 µg/mL | % Susceptible (Yersinia enterocolitica): 100% | MIC50 (Yersinia enterocolitica): 0.12 µg/mL (≈ 0.332 µM) | MIC90 (Yersinia enterocolitica): 0.12 µg/mL (≈ 0.332 µM) | MIC Range (Yersinia enterocolitica): 0.03 to 0.5 µg/mL | MIC Range (Staphylococcus aureus [9]): 0.25 to 32 µg/mL | MIC90 (Staphylococcus aureus [9]; read-out: MIC90): 1 µg/mL (≈ 2.77 µM) | % Susceptible (Shigella spp. [5]): 100% | MIC50 (Shigella spp. [5]): 0.03 µg/mL (≈ 0.083 µM) | MIC90 (Shigella spp. [5]): 0.06 µg/mL (≈ 0.166 µM) | MIC Range (Shigella spp. [5]): ≤0.015 to 0.06 µg/mL | MIC (Salmonella spp.; [14]): 2 mg/L (≈ 5.53 µM) | MIC (Salmonella spp.; [15]): 2 mg/L (≈ 5.53 µM) | MIC (mg/L) Range (Salmonella spp.): 0.06 to 2 mg/L | MIC (Salmonella spp.; [16]): 2 mg/L (≈ 5.53 µM) | MIC (Salmonella spp.; [17]): 0.12 mg/L (≈ 0.332 µM) | MIC (Salmonella spp.; [18]): 0.5 mg/L (≈ 1.38 µM) | MIC (Campylobacter jejuni; read-out: MIC (mg/L) 50%): 16 mg/L (≈ 44.3 µM) | MIC (Campylobacter jejuni; read-out: MIC (mg/L) 90%): 32 mg/L (≈ 88.6 µM) | Resistance (%) (Staphylococcus aureus [6]; [19]): 100% | Resistance (%) (Staphylococcus aureus [6]; [20]): 0% | MIC90 (Staphylococcus aureus [6]; [19]): 16 µg/mL (≈ 44.3 µM) | MIC90 (Staphylococcus aureus [6]; Staphylococcus aureus (n = 80)): 8 µg/mL (≈ 22.1 µM) | MIC90 (Enterococcus faecalis): > 32 µg/mL
